From patent publication US20110110916A1, “METHODS FOR TREATING AND/OR PREVENTING CARDIOMYOPATHIES BY ERK OR JNK INHIBITION” (priority 2008, published 2011)

Assays:
Assay type in all cases: in vivo, mouse
ERK1/2 = assay: Immunoblot of phosphorylated ERK1/2 versus total ERK1/2 in hearts of treated mice
Experimental: Hearts were excised from mice at 16-weeks of age and were homogenized in RIPA extraction buffer (Cell Signalling) containing protease inhibitors (25 […]). Protein samples were subjected to SDS-PAGE, transferred to nitrocellulose membranes and blotted with primary antibodies against ERK1/2 (Santa-Cruz), phosphorylated ERK1/2 (Cell Signaling), JNK (Santa-Cruz), natriuretic peptide precursor A (Santa-Cruz), phosphorylated JNK (Cell Signaling), and Gapdh (Ambion). Secondary antibodies were HRP-conjugated (Amersham). Recognized proteins were visualized by enhanced chemiluminescence (ECL, Amersham). The signal generated using an antibody against Gapdh was used as internal controls to normalize the amounts of protein between immunoblots.
We assessed the efficacy of the chemical entities in inhibiting their targets in the heart by immunoblot using anti-total ERK1/2 (Santa Cruz) and anti-pERK1/2 (Cell Signaling) antibodies.
Proteins were loaded on 10% SDS gels and electrotransferred on a […] pore size nitrocellulose membrane (Invitrogen). We used antibodies directed against phosphorylated ERK1/2 (Cell Signaling, 1:1,000), total ERK1/2 (Santa Cruz, 1:2,000), phosphorylated JNK (Cell Signaling, 1:1,000) and total JNK (Santa Cruz, 1:200). The secondary antibodies were coupled to horseradish-peroxydase (Amersham). Recognized proteins were visualized by enhanced chemiluminescence (SuperSignal® West Pico chemiluminescent substrate, Thermo Scientific).

[1] = system: hearts from Lmna^H222P/H222P mice; assay: Quantification of myocardial fibrotic area (Gomori's trichrome); details: 20 weeks of age; 3 mg/kg/day from 16 to 20 weeks; DMSO 15.01±0.9%
Description: Later-stage cardiomyopathy caused by LMNA mutations is characterized by myocardial fibrosis. […] We quantified the myocardial fibrotic area of each animal by determining the ratio of fibrotic tissue (blue stained with Gomori's trichrome) to the total tissue area in each micrograph (FIG. 8B). Hearts from DMSO-treated Lmna^H222P/H222P mice had 20.93%±2.45% fibrotic tissue per total surface examined (FIG. 8B).
Mice were sacrificed at 20 weeks of age, and freshly removed hearts were fixed in 4% formaldehyde for 48 hours, embedded in paraffin, sectioned at 5 μm and stained with hematoxylin, eosin and Gomori's trichrome and Syrius Red. Representative stained sections were photographed using a Microphot SA (Nikon) light microscope attached to a Spot RT Slide camera (Diagnostic Instruments) with a 10× objective. Images were processed using Adobe Photoshop CS (Adobe Systems).
Later-stage cardiomyopathy caused by LMNA mutations is characterized by myocardial fibrosis (21,22). […] We quantified the myocardial fibrotic area of each animal by determining the ratio of fibrotic tissue (blue stained with Gomori's trichrome) to the total tissue area in each micrograph (FIG. 34C). Hearts from DMSO-treated Lmna^H222P/H222P mice had 15.01±0.9% fibrotic tissue per total surface examined (FIG. 34D).

Lmna^H222P/H222P mice = details: for development of LV dilatation: echocardiography (PD98059 also histopathology); for EF / FS / IVSD / LVEDD / LVESD / LVPW: Lmna^H222P/H222P mice at 16 weeks of age, i.p. 5 days a week from 8 to 16 weeks (PD98059, SP600125 3 mg/kg/day), means ± standard deviations
Experimental: PD98059 (Calbiochem) and SP600125 (Calbiochem) were dissolved in Dimethyl Sulfoxide (DMSO, Sigma) at a concentration of 0.5 mg/ml and were delivered to a dose of 3 mg/kg/day for 5 days a week. […] The placebo control consisted of DMSO alone. Placebo and inhibitors were administered by intraperitoneal injection using a 27G^5/8 syringe. Treatment was started when mice were 8 weeks of age and continued until 16 weeks of age.
Lmna H222P knock-in mice were generated and genotyped as described (14). […] Lmna^H222P/H222P mice were separated by sex and were given either vehicle alone (DMSO), the MEK inhibitor PD98059 alone, the JNK inhibitor SP600125 alone, both PD98059 and SP600125 together, the MEK inhibitor U0126 alone, or the MEK inhibitor MEK1/2 alone. All the mice were fed on a chow diet and housed in a barrier facility. The Institutional Animal Care and Use Committee at Columbia University Medical Center approved the use of animals in the study protocol.
Cardiac function was assessed by echocardiography with a Visualsonics Vevo 770 ultrasound with a 30-MHz transducer applied to the chest wall. Cardiac ventricular dimensions and ejection fraction were measured in 2D-mode and M-mode three times for the number of animals indicated. A “blinded” echocardiographer, unaware of the genotype or treatment, performed the examinations.
We administered PD98059, at a dose of 3 mg/kg/day or 6 mg/kg/day, or placebo (dimethylsulfoxide; DMSO) by intraperitoneal injection 5 days a week to male homozygous Lmna mutant mice (Lmna^H222P/H222P). […] PD98059 mediates its inhibitory properties by binding to MEK, therefore preventing phosphorylation of ERK1/2.
Treatment was initiated at 8 weeks of age and continued until the mice were 16 weeks of age. At 16 weeks of age, the mice were analyzed by echocardiography and then sacrificed for histological and biochemical studies. Untreated male Lmna^+/+ and Lmna^H222P/H222P mice were similarly analyzed for comparisons.

[2] = 3 mg/kg/day from 16 to 20 weeks of age
[3] = treated 8 to 16 weeks of age, 3 mg/kg/day i.p.
[4] = 16 weeks of age, treated 8 to 16 weeks

SMILES	phosphorylation of ERK1/2 in hearts (ERK1/2; [2])	phosphorylation of ERK1/2 in hearts (ERK1/2; [3])	area of fibrotic tissue per total surface examined [1]	development of LV dilatation (Lmna^H222P/H222P mice; [4])	EF (Lmna^H222P/H222P mice) [%]	FS (Lmna^H222P/H222P mice) [%]	IVSD (Lmna^H222P/H222P mice) [mm]	LVEDD (Lmna^H222P/H222P mice) [mm]	LVESD (Lmna^H222P/H222P mice) [mm]	LVPW (Lmna^H222P/H222P mice) [mm]	phosphorylation of ERK1/2 in hearts (ERK1/2; pilot study, 24 week-old mice treated from 19 weeks)	cardiac contractility (ejection fraction and LV fractional shortening) (Lmna^H222P/H222P mice; 16 weeks of age, treated 8 to 16 weeks, compared with Lmna^+/+ mice)
O=C1c2ccccc2-c2n[nH]c3cccc1c23 [SP600125, anthra[1,9-cd]pyrazol-6(2H)-one]	not significantly inhibited	did not block	5.86%±0.4%	prevented development of LV dilatation	69.24 ± 9.59	38.70 ± 7.38	0.72 ± 0.07	3.46 ± 0.27	2.30 ± 0.45	0.73 ± 0.08		
COc1cccc(-c2cc(=O)c3ccccc3o2)c1N [PD98059, 2-(2-amino-3-methoxyphenyl)-4H-1-benzopyran-4-one]	partially blocked	inhibited	4.48%±1%	prevented development of LV dilatation	73.52 ± 4.68	41.55 ± 4.29	0.69 ± 0.06	3.12 ± 0.20	1.82 ± 0.16	0.77 ± 0.10	partially blocked	normal cardiac contractility
